Experimental data from US20100226853A1 (priority 2007, published 2010).

How the values were obtained:
M07e cells = assay: Cellular proliferation, [3H]thymidine uptake, Kit ligand dependent growth; assay type: cell-based; conditions: Homo sapiens, M-07e, read-out: IC50, M07e cells proliferation
Protocol: The immortalized human hematopoietic Philadelphia chromosome-positive cytokine independent R10(−) M07e^p210 cell line (46) was maintained in Iscove's modified Dulbecco's medium (Life Technologies, Inc., Grand Island, N.Y.) containing 10% FCS (Hyclone, Logan, Utah). The parental M07e megakaryoblastic cell line was a kind gift of Brian Druker and was maintained in the presence of 50 ng/mL kit ligand (SCF) as described (46-47) K562 was obtained from the ATCC. K562 was maintained in suspension in 90% RPMI 1640 medium supplemented with 10% FBS, 2 mM L-glutamine, 10 mM HEPES, 1 mM sodium pyruvate, 1.5 g/L sodium bicarbonate, 4.5 g/L […], 10% FBS, 100 IU/mL penicillin and 100 μg/ml streptomycin. Tumor cell cultures were maintained in a humidified atmosphere with 5% CO2 at 37° C. (NuAire).
. Data points for all assays were obtained in triplicate, and background incorporation from cell-free wells was determined and subtracted from all data points. The data was analyzed using a non-linear regression fit to a sigmoidal dose-response curve using Prism 4 (GraphPad Software, Inc).

[1] = test system: H1975 and H1975-DR lung cancer xenografts; assay: microPET competitive inhibition of tracer uptake by unlabeled Dasatinib; assay type: in vivo, SCID mouse
[2] = oral dasatinib therapy; cited from earlier work
ACK = target: T1, ACK (Homo sapiens, UniProt Q07912); assay: QuickScout ELISA kinase panel; assay type: biochemical
T1 construct: purchased Carna Biosciences (QuickScout service)
Description: (§1) . […] An ELISA-based assay was used in which the phosphorylation of an oligopeptide substrate was detected by an HRP-conjugated anti-p-Tyr (PY20) probe. […]. The data appears in Table 2 in Example 3.

CSK = target: T2, CSK (Homo sapiens, UniProt P41240); assay: QuickScout ELISA kinase panel; assay type: biochemical
T2 construct: purchased Carna Biosciences (QuickScout service)
Description: as §1

EphA2 = target: T3, EphA2 (Homo sapiens, UniProt P29317); assay: QuickScout ELISA kinase panel; assay type: biochemical
T3 construct: purchased Carna Biosciences (QuickScout service)
Description: as §1

EphB4 = target: T4, EphB4 (Homo sapiens, UniProt P54760); assay: QuickScout ELISA kinase panel; assay type: biochemical
T4 construct: purchased Carna Biosciences (QuickScout service)
Description: as §1

FLT3 = target: T5, FLT3 (Homo sapiens, UniProt P36888); assay: QuickScout ELISA kinase panel; assay type: biochemical
T5 construct: purchased Carna Biosciences (Kobe, Japan), QuickScout service
Description: as §1

JAK3 = target: T6, JAK3 (Homo sapiens, UniProt P52333); assay: QuickScout ELISA kinase panel; assay type: biochemical
T6 construct: purchased Carna Biosciences (QuickScout service)
Description: as §1

MET = target: T7, MET (Homo sapiens, UniProt P08581); assay: QuickScout ELISA kinase panel; assay type: biochemical
T7 construct: purchased Carna Biosciences (QuickScout service)
Description: as §1

PDGFR— = target: T8, PDGFR— (Homo sapiens, UniProt P16234); assay: QuickScout ELISA kinase panel; assay type: biochemical
T8 construct: purchased Carna Biosciences (Kobe, Japan), QuickScout service
Description: as §1

TEC = target: T9, TEC (Homo sapiens, UniProt P42680); assay: QuickScout ELISA kinase panel; assay type: biochemical
T9 construct: purchased Carna Biosciences (Kobe, Japan), QuickScout service
T9 sequence (P42680 1-631): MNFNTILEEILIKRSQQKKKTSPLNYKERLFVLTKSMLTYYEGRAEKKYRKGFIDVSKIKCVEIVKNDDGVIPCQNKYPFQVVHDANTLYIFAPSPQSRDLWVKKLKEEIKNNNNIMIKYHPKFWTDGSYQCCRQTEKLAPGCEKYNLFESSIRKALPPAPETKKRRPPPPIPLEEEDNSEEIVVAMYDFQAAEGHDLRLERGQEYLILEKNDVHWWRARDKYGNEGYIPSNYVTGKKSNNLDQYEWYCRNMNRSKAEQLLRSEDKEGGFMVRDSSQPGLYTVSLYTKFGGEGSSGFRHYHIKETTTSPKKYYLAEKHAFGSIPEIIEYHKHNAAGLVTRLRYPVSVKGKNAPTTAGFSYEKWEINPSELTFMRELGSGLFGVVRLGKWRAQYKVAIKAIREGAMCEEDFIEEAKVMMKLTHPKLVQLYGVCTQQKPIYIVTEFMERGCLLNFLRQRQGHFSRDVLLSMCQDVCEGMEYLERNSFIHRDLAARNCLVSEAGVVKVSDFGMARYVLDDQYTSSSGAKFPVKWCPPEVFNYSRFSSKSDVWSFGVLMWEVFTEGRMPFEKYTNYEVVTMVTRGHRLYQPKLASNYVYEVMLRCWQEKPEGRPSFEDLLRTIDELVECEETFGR
Description: as §1

TYRO3 = target: T10, TYRO3 (Homo sapiens, UniProt Q06418); assay: QuickScout ELISA kinase panel; assay type: biochemical
T10 construct: purchased Carna Biosciences (QuickScout service)
Description: as §1

SRC = SRC (Homo sapiens, UniProt P12931); assay: biochemical
Description: (§2) An ELISA-based assay was used in which the phosphorylation of an oligopeptide substrate was detected by an HRP-conjugated anti-p-Tyr (PY20) probe.

EGFR = target: T11, EGFR (Homo sapiens, UniProt P00533); assay: QuickScout ELISA kinase panel; assay type: biochemical; conditions: Table 3
T11 construct: purchased Carna Biosciences (QuickScout service)
Description: as §2

FGFR1 = target: T12, FGFR1 (Homo sapiens, UniProt P11362); assay: QuickScout ELISA kinase panel; assay type: biochemical; conditions: Table 3
T12 construct: purchased Carna Biosciences (QuickScout service)
Description: as §2

KIT = target: T13, KIT (Homo sapiens, UniProt P10721); assay: QuickScout ELISA kinase panel; assay type: biochemical; conditions: Table 3
T13 construct: purchased Carna Biosciences (Kobe, Japan), QuickScout service
Description: as §2

[3] = In vivo metabolism in mice (blood/plasma radio-HPLC); conditions: for Peak 3 [18F]-5 (16.9 min) % Radioactivity, parent: plasma
Protocol: Mice were injected i.v. with [^18F]-5 in the tail vein and sacrificed using carbon dioxide at 30, 60 and 120 min post injection. Each group contained three mice. Immediately after sacrifice, about 0.5 ml of blood was collected by cardiac puncture and deposited in a 1.5 ml Eppendorf tube. Disodium EDTA (2.5 mg) was used as anticoagulant. The samples were then maintained at 4° C. for subsequent procedures. The total radioactivity in each total blood sample was counted. The samples were then centrifuged at 4° C. at 2200×g. Radioactivity of the serum and pellet measured and about 50% of the total radioactivity was retained in the pellet. The serum was transferred to a 1.5 ml Eppendorf tube containing about […] of 60% acetonitrile in water and centrifuged again to precipitate any residual proteins. The supernatant was analyzed using HPLC and examined for metabolites. HPLC was carried out on a C-18 Shimadzu 4.6×250 mm HPLC column and eluted under gradient conditions 80% A (pH 5.5 50 mM NaOAc):20% B (CH3CN) to 20% A:80% B at 1 ml/min. Radioactivity was detected using Packard Radiomatic FLO-One/beta detector equipped with a PET flow cell containing BGO (bismuthgermanate) windows.

[4] = test system: K562 (CML) tumor xenografts; assay: microPET imaging of K562 xenograft; assay type: in vivo, athymic nu/nu mice
Protocol: All animal studies were carried out within the framework of an institutional IACUC approved protocol (No. 86-02-020). Athymic nu/nu mice (National Cancer Institute, Bethesda, Md.) were inoculated subcutaneously onto the right shoulder with 1×10^7 K562 cells mixed with Matrigel (BD Biosciences, San Jose, Calif.). K562 is a chronic myelogenous leukemia cell line cultured with IMDM (Iscove's modified Dulbecco's medium; prepared in-house) containing 4 mM L-glutamine, 1.5 g/L sodium bicarbonate, and 10% fetal bovine serum.
Three weeks following tumor inoculation, PET images of mice were obtained using FOCUS 120 microPET™ scanner (Siemens Preclinical Solutions, Knoxyille, Tenn.) with [^18F]-5. Mice were injected intravenously (via tail vein) with 14±1 MBq (375±25 μCi) of [^18F]-5 and imaged 60 minutes later under 2% (at 1 L/min) isoflurane anesthesia (Forane, Baxter Healthcare, Deerfield, Ill.). Image acquisition time was 15 min (t=60 to 75 min) using a 250-750 keV energy window and a 6 nsec timing window. List-mode data were sorted into sinograms by Fourier re-binning and reconstructed by filter back-projection without attenuation correction. Count data in the reconstructed images were converted to activity concentration (i.e. % of the injected dose per gram (% ID/gm)) using a system calibration factor determined using a ^18F-filled mouse-sized phantom. Visualization and analyses of microPET images were carried out using AsiPRO™ software (Siemens Preclinical Solutions, Knoxyille, Tenn.).
In vivo results have been obtained in athymic mice bearing subcutaneous K562 (CML) tumor xenografts in the right shoulder. [^18F]-5 (14±1 MBq, 375±25 μCi) was injected through the tail vein and the subjects were imaged in a microPET scanner. […] Tracer activity was evident within the tumor xenograft (white arrow) and was determined to be 1.1% of the injected dose by ROI (region of interest) analysis. […] The transaxial image was taken at the level of the known palpable tumor as shown in the coronal section (broken line). The intensity of the radiotracer activity is color-graded as depicted by the colored scale.

ABL = ABL (Homo sapiens, UniProt P00519); assay: QuickScout ELISA kinase panel; assay type: biochemical; parameters: purchased Carna Biosciences (QuickScout service); conditions: Table 3
Description: as §2

T8 sequence (P16234 550-1089 limits assumed): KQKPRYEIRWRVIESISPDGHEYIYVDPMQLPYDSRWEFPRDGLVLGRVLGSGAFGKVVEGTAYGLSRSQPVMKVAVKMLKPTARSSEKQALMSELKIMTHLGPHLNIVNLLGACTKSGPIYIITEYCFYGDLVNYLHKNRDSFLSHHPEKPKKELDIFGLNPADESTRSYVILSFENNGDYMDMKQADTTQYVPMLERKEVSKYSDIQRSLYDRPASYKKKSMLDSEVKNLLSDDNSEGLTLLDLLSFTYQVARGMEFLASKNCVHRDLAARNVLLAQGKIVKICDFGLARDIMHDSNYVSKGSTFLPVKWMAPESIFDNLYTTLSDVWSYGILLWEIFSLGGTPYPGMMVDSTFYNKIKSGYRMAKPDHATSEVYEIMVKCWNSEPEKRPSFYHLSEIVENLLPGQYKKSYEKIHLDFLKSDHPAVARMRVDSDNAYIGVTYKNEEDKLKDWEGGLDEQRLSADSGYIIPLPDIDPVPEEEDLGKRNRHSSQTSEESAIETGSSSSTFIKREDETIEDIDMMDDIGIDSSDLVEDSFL
Chain of SRC (P12931 whole entry): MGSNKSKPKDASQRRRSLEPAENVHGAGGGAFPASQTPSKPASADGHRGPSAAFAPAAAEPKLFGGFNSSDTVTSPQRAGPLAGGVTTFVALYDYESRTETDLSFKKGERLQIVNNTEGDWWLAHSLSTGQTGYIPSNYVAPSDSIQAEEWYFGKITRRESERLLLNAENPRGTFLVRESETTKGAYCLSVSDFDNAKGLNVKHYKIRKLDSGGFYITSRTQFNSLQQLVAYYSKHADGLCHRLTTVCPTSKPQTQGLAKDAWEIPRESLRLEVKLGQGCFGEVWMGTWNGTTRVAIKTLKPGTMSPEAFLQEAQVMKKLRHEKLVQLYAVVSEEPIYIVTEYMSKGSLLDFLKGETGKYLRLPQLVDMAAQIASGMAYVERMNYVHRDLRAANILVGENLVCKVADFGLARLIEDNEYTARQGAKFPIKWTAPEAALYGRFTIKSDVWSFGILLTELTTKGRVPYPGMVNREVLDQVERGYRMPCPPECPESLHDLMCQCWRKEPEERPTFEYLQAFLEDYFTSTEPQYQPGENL
T2 sequence (P41240 whole entry): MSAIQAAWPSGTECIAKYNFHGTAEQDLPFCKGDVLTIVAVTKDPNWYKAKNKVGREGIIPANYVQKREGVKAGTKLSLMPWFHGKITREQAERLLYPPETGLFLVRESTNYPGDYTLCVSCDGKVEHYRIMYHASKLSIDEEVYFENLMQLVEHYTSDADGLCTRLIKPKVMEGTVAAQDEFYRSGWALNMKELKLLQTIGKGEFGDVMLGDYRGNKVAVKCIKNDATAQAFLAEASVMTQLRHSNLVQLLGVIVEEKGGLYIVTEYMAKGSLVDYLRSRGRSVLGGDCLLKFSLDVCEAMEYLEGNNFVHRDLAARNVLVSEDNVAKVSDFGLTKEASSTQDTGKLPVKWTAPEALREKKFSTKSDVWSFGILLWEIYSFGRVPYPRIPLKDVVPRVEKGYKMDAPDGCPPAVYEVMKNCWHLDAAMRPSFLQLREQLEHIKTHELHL
T4 sequence (P54760 16-987): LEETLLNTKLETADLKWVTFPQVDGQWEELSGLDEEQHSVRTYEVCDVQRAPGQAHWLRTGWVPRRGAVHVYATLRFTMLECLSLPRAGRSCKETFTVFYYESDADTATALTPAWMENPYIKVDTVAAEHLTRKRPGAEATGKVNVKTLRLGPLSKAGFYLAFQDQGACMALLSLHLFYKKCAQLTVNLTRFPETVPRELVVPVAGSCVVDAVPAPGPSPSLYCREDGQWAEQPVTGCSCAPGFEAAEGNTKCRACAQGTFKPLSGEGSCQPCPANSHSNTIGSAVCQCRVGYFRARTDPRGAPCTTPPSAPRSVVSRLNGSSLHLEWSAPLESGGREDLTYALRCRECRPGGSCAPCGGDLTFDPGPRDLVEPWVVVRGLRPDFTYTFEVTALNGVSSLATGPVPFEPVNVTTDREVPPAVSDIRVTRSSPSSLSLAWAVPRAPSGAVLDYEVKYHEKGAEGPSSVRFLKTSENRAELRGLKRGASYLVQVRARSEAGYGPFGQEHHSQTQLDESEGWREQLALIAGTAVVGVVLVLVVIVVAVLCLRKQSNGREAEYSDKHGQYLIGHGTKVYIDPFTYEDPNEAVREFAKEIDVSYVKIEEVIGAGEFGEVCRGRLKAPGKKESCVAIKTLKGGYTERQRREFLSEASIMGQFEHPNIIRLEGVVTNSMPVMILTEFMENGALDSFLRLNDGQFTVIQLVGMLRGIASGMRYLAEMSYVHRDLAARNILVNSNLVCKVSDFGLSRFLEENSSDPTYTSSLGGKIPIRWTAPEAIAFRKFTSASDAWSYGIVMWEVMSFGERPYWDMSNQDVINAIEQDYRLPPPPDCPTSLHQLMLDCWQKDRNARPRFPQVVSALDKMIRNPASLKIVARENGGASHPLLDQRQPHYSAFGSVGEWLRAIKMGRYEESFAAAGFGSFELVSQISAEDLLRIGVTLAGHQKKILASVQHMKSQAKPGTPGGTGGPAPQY
T3 sequence (P29317 24-976): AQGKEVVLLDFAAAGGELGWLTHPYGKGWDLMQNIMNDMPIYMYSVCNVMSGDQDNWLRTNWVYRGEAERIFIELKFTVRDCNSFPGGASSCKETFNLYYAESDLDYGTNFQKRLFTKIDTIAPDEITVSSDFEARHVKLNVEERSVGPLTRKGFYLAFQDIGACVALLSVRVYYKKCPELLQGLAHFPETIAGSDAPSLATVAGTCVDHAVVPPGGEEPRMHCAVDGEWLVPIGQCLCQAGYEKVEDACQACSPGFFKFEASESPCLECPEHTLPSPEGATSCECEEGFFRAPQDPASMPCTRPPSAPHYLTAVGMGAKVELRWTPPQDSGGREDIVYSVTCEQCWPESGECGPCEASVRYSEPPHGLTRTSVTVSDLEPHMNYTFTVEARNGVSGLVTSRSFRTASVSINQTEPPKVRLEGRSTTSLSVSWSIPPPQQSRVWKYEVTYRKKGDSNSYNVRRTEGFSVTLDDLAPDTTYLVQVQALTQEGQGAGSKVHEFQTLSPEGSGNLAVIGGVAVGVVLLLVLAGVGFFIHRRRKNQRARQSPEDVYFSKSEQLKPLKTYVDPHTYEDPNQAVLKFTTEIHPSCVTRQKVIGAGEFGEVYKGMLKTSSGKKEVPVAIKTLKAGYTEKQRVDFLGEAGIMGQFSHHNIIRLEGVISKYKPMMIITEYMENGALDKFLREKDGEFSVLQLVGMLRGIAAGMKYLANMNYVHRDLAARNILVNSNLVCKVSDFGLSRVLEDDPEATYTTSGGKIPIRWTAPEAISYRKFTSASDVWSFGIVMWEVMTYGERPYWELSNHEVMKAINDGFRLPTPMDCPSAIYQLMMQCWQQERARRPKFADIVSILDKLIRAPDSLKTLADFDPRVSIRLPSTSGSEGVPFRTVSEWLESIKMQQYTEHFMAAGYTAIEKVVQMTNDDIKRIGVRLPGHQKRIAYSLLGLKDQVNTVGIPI
T1 sequence (Q07912 whole entry): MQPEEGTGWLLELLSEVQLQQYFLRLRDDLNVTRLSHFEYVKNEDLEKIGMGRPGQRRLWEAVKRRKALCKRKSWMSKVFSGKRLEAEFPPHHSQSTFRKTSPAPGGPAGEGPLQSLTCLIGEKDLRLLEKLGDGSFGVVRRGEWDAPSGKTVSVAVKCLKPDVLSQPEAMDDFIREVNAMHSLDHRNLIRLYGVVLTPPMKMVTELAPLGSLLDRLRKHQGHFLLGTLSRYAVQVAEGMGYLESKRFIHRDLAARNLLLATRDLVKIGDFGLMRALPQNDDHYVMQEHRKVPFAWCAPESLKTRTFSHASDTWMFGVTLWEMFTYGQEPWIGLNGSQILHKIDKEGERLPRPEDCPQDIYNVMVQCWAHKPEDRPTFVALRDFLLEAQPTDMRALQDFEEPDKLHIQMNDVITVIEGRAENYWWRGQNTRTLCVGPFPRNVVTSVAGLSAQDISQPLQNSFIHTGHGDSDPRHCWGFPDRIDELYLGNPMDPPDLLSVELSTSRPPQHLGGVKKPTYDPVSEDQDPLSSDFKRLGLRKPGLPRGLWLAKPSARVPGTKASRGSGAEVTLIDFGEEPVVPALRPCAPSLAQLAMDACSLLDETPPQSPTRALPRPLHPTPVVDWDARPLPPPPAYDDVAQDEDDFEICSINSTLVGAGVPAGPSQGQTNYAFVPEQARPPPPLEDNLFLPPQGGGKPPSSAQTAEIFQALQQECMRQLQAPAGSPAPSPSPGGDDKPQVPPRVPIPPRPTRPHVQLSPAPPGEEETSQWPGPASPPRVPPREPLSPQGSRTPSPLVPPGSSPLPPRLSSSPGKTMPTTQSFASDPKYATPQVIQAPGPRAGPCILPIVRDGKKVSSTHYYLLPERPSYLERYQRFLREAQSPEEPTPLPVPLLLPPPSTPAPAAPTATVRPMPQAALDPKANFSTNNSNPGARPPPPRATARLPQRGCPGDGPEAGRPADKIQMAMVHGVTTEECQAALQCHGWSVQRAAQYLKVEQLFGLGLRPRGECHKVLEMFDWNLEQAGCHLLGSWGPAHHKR

Cc1nc(Nc2ncc(C(=O)Nc3c(C)cccc3Cl)s2)cc(N2CCN(CCO)CC2)n1.O [Dasatinib, N-(2-chloro-6-methylphenyl)-2-[[6-[4-(2-hydroxyethyl)-1-piperazinyl]-2-methyl-4-pyrimidinyl]amino]-5-thiazole carboxamide monohydrate, reference compound]
IC50 (M07e cells): 1.2 ± 0.8 nM
effect of unlabeled Dasatinib on [18F]-5 uptake ([1]; Dasatinib 30 mg/kg IP): competitive inhibition of tracer uptake in the tumors and organs
patients with severe myelosuppression [2]: > 50%

CN[C@@H]1C[C@H]2O[C@@](C)([C@@H]1OC)n1c3ccccc3c3c4c(c5c6ccccc6n2c5c31)C(=O)NC4 [Staurosporine, reference compound]
inhibition at 0.03 µM (ACK; read-out: % Inhibition of Kinase Activity, ACK): 96.4%
inhibition at 0.3 µM (CSK; read-out: % Inhibition of Kinase Activity, CSK): 89.3%
inhibition at 10 µM (EphA2; read-out: % Inhibition of Kinase Activity, EphA2): 92.6%
inhibition at 10 µM (EphB4; read-out: % Inhibition of Kinase Activity, EphB4): 94.1%
inhibition at 0.003 µM (FLT3): 96.4%
inhibition at 0.003 µM (JAK3): 95.3%
inhibition at 0.3 µM (MET): 90%
inhibition at 0.003 µM (PDGFR—; read-out: % Inhibition of Kinase Activity, PDGFR—): 88.4%
inhibition at 0.3 µM (TEC; read-out: % Inhibition of Kinase Activity, TEC): 92.5%
inhibition at 1 µM (TYRO3): 95.3%
inhibition at 3 µM (SRC; read-out: % Inhibition of Kinase Activity, SRC, Staurosporine at 3000 nM): 89.8%

Cc1nc(Nc2ncc(C(=O)Nc3c(C)cccc3Cl)s2)cc(N2CCN(CC[18F])CC2)n1 [[^18F]-5]
EC50 (EGFR): 270 nM
EC50 (FGFR1): 390 nM
EC50 (KIT): 1.3 nM
EC50 (ACK; Table 3): 20 nM
EC50 (CSK; Table 3): 5 nM
EC50 (EphA2; Table 3): 1.9 nM
EC50 (EphB4; Table 3): 3.1 nM
EC50 (PDGFR—; Table 3): 16 nM
EC50 (TEC; Table 3): 1.9 nM
EC50 (SRC): 2.6 nM
total blood radioactivity retained in the pellet ([3]; mouse blood centrifuged at 2200 x g after i.v. injection): about 50%
Peak 3 [18F]-5 (16.9 min) % Radioactivity, parent ([3]; 30 min post injection): 31 ± 11%
Peak 3 [18F]-5 (16.9 min) % Radioactivity, parent ([3]; 60 min post injection): 9 ± 3%
Peak 3 [18F]-5 (16.9 min) % Radioactivity, parent ([3]; 120 min post injection, one trial only): 8%
metabolism in plasma over time course ([3]; two-hour time course, HPLC of plasma): metabolized significantly
tracer activity within the tumor xenograft by ROI analysis ([4]; 60 minutes after i.v. injection, one representative mouse): 1.1 % of the injected dose
route of clearance ([4]; microPET 60-75 min): cleared via the hepatobiliary route predominantly
uptake in bone ([4]; microPET 60-75 min): no significant uptake
K562 tumor uptake in mice ([4]; mouse, in vivo): significant K562 tumor uptake
tumor uptake of tracer ([1]; H1975 right, H1975-DR left shoulder, before Dasatinib): tumor uptake is evident bilaterally
EC50 (ABL): 0.6 nM
